The series is described as follows: mn = molality of the nth substance listed, in mol/kg. The conditions noted are these: 100.8 kPa, Liquid, Pycnometric method.

Numbers after ± are expanded uncertainties.

Broadly, the mass density is mass per unit of volume. For `[NH4+].[O]=[V](=[O])[O-]` [ammonium vanadate] + O, the mass density (313.15 K, m1 = 0.0946) came to 1002.1 ± 2 kg/m3; the mass density (343.15 K, m1 = 0.2563) was 1001.1 ± 2.3 kg/m3; the mass density (343.15 K, m1 = 0.2612) is reported as 1001.3 ± 2.1 kg/m3.
